Source: patent US12344600B2, “c-Myc mRNA translation modulators and uses thereof in the treatment of cancer” (Anima Biotech Inc., priority 2022, dated 2025)

Tested on: c-Myc
Experiment: c-Myc immunofluorescence assay
Type: cell-based, human
Details: A549 cells, 24 hours, anti-c-Myc immunofluorescence
How it was run: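 A549 NSCLC cells grown 48 h, then treated 24 h with increasing compound concentrations; fixed in 4% paraformaldehyde, stained with anti-c-Myc antibody plus fluorescent secondary and DAPI. Per-cell c-Myc fluorescence quantified by high-content imaging at 20×; dose-response fitted by logistic regression to give EC50.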

Row | Compound | Myc Efficacy (−LogEC50)
1 | COc1ccc(-c2noc(N3CCC(C(=O)NCC4CCN(CC5CCCCO5)C4)CC3)n2)cc1 (centres unmarked) [Compound 361, 1-(3-(4-methoxyphenyl)-1,2,4-oxadiazol-5-yl)-N-((1-((tetrahydro-2H-pyran-2-yl)methyl)pyrrolidin-3-yl)methyl)piperidine-4-carboxamide] | ++ (++ ≥5 and <6)
2 | COc1ccc(-c2noc(N3CCC(C(=O)NCC4CCN(CCO)C4)CC3)n2)cc1 (centres unmarked) [Compound 362, N-((1-(2-hydroxyethyl)pyrrolidin-3-yl)methyl)-1-(3-(4-methoxyphenyl)-1,2,4-oxadiazol-5-yl)piperidine-4-carboxamide] | + (+ >3 and <5)
3 | COc1ccc(-c2noc(N3CCC(C(=O)NCC4CCN(Cc5cccn5C)C4)CC3)n2)cc1 (centres unmarked) [Compound 363, 1-(3-(4-methoxyphenyl)-1,2,4-oxadiazol-5-yl)-N-((1-((1-methyl-1H-pyrrol-2-yl)methyl)pyrrolidin-3-yl)methyl)piperidine-4-carboxamide] | + (+ >3 and <5)
4 | COc1ccc(-c2noc(N3CCC(C(=O)NCC4CCN(Cc5nccs5)C4)CC3)n2)cc1 (centres unmarked) [Compound 364, 1-(3-(4-methoxyphenyl)-1,2,4-oxadiazol-5-yl)-N-((1-(thiazol-2-ylmethyl)pyrrolidin-3-yl)methyl)piperidine-4-carboxamide] | + (+ >3 and <5)
5 | COc1ccc(-c2noc(N3CCC(C(=O)NCC4CCN(Cc5cncc(C)c5)C4)CC3)n2)cc1 (centres unmarked) [Compound 365, 1-(3-(4-methoxyphenyl)-1,2,4-oxadiazol-5-yl)-N-((1-((5-methylpyridin-3-yl)methyl)pyrrolidin-3-yl)methyl)piperidine-4-carboxamide] | ++ (++ ≥5 and <6)
6 | COc1ccc(-c2noc(N3CCC(C(=O)NCC4CCN(CCF)C4)CC3)n2)cc1 (centres unmarked) [Compound 366, N-((1-(2-fluoroethyl)pyrrolidin-3-yl)methyl)-1-(3-(4-methoxyphenyl)-1,2,4-oxadiazol-5-yl)piperidine-4-carboxamide] | + (+ >3 and <5)
7 | COc1ccc(-c2noc(N3CCC(C(=O)NCC4CCN(CC(F)F)C4)CC3)n2)cc1 (centres unmarked) [Compound 367, N-((1-(2,2-difluoroethyl)pyrrolidin-3-yl)methyl)-1-(3-(4-methoxyphenyl)-1,2,4-oxadiazol-5-yl)piperidine-4-carboxamide] | + (+ >3 and <5)
8 | COc1ccc(-c2noc(N3CCC(C(=O)NCC4CCN(CC5CC5C)C4)CC3)n2)cc1 (centres unmarked) [Compound 368, 1-(3-(4-methoxyphenyl)-1,2,4-oxadiazol-5-yl)-N-((1-((2-methylcyclopropyl)methyl)pyrrolidin-3-yl)methyl)piperidine-4-carboxamide] | ++ (++ ≥5 and <6)
9 | COc1ccc(-c2noc(N3CCC(C(=O)NCC4CCN(C[C@@H]5CCCN5C)C4)CC3)n2)cc1 (stereo partly drawn) [Compound 369, 1-(3-(4-methoxyphenyl)-1,2,4-oxadiazol-5-yl)-N-((1-(((S)-1-methylpyrrolidin-2-yl)methyl)pyrrolidin-3-yl)methyl)piperidine-4-carboxamide] | + (+ >3 and <5)
10 | COc1ccc(-c2noc(N3CCC(C(=O)NCC4CCN(C5CCOC5)C4)CC3)n2)cc1 (centres unmarked) [Compound 370, 1-(3-(4-methoxyphenyl)-1,2,4-oxadiazol-5-yl)-N-((1-(tetrahydrofuran-3-yl)pyrrolidin-3-yl)methyl)piperidine-4-carboxamide] | + (+ >3 and <5)
11 | COc1ccc(-c2noc(N3CCC(C(=O)NCC4CCN(CC5(C)COC5)C4)CC3)n2)cc1 (centres unmarked) [Compound 371, 1-(3-(4-methoxyphenyl)-1,2,4-oxadiazol-5-yl)-N-((1-((3-methyloxetan-3-yl)methyl)pyrrolidin-3-yl)methyl)piperidine-4-carboxamide] | + (+ >3 and <5)
12 | COc1ccc(-c2noc(N3CCC(C(=O)NCC4CCN(Cc5cccs5)C4)CC3)n2)cc1 (centres unmarked) [Compound 372, 1-(3-(4-methoxyphenyl)-1,2,4-oxadiazol-5-yl)-N-((1-(thiophen-2-ylmethyl)pyrrolidin-3-yl)methyl)piperidine-4-carboxamide] | ++ (++ ≥5 and <6)
13 | COc1ccc(-c2noc(N3CCC(C(=O)NCC4CCN(Cc5cnsc5)C4)CC3)n2)cc1 (centres unmarked) [Compound 373, N-((1-(isothiazol-4-ylmethyl)pyrrolidin-3-yl)methyl)-1-(3-(4-methoxyphenyl)-1,2,4-oxadiazol-5-yl)piperidine-4-carboxamide] | ++ (++ ≥5 and <6)
14 | COc1ccc(-c2noc(N3CCC(C(=O)NCC4CCN(CC(C)C)C4)CC3)n2)cc1 (centres unmarked) [Compound 374, N-((1-isobutylpyrrolidin-3-yl)methyl)-1-(3-(4-methoxyphenyl)-1,2,4-oxadiazol-5-yl)piperidine-4-carboxamide] | + (+ >3 and <5)
15 | COc1ccc(-c2noc(N3CCC(C(=O)NCC4CCN(CC5CCCOC5)C4)CC3)n2)cc1 (centres unmarked) [Compound 375, 1-(3-(4-methoxyphenyl)-1,2,4-oxadiazol-5-yl)-N-((1-((tetrahydro-2H-pyran-3-yl)methyl)pyrrolidin-3-yl)methyl)piperidine-4-carboxamide] | ++ (++ ≥5 and <6)
16 | CCN1CCC(CNC(=O)C2CCN(c3nc(-c4ccc(OC)cc4)no3)CC2)C1 (centres unmarked) [Compound 376, N-((1-ethylpyrrolidin-3-yl)methyl)-1-(3-(4-methoxyphenyl)-1,2,4-oxadiazol-5-yl)piperidine-4-carboxamide] | − (− ≤3)
17 | COc1ccc(-c2noc(N3CCC(C(=O)NCC4CCN(CC5(C)CCOCC5)C4)CC3)n2)cc1 (centres unmarked) [Compound 377, 1-(3-(4-methoxyphenyl)-1,2,4-oxadiazol-5-yl)-N-((1-((4-methyltetrahydro-2H-pyran-4-yl)methyl)pyrrolidin-3-yl)methyl)piperidine-4-carboxamide] | + (+ >3 and <5)
18 | C#Cc1ccc(CN2CCC(CNC(=O)C3CCN(c4nc(-c5ccc(OC)cc5)no4)CC3)C2)cc1 (centres unmarked) [Compound 378, N-((1-(4-ethynylbenzyl)pyrrolidin-3-yl)methyl)-1-(3-(4-methoxyphenyl)-1,2,4-oxadiazol-5-yl)piperidine-4-carboxamide] | ++ (++ ≥5 and <6)
19 | COc1ccc(-c2noc(N3CCC(C(=O)NCC4CCN(Cc5ccc(C)o5)C4)CC3)n2)cc1 (centres unmarked) [Compound 379, 1-(3-(4-methoxyphenyl)-1,2,4-oxadiazol-5-yl)-N-((1-((5-methylfuran-2-yl)methyl)pyrrolidin-3-yl)methyl)piperidine-4-carboxamide] | ++ (++ ≥5 and <6)
20 | COc1ccc(-c2noc(N3CCC(C(=O)NCC4CCN(Cc5cccnc5C)C4)CC3)n2)cc1 (centres unmarked) [Compound 380, 1-(3-(4-methoxyphenyl)-1,2,4-oxadiazol-5-yl)-N-((1-((2-methylpyridin-3-yl)methyl)pyrrolidin-3-yl)methyl)piperidine-4-carboxamide] | ++ (++ ≥5 and <6)
21 | COc1ccc(-c2noc(N3CCC(C(=O)NCC4CCN(Cc5sccc5C)C4)CC3)n2)cc1 (centres unmarked) [Compound 381, 1-(3-(4-methoxyphenyl)-1,2,4-oxadiazol-5-yl)-N-((1-((3-methylthiophen-2-yl)methyl)pyrrolidin-3-yl)methyl)piperidine-4-carboxamide] | ++ (++ ≥5 and <6)
22 | COc1ccc(-c2noc(N3CCC(C(=O)NCC4CCN(Cc5cc(C)co5)C4)CC3)n2)cc1 (centres unmarked) [Compound 382, 1-(3-(4-methoxyphenyl)-1,2,4-oxadiazol-5-yl)-N-((1-((4-methylfuran-2-yl)methyl)pyrrolidin-3-yl)methyl)piperidine-4-carboxamide] | ++ (++ ≥5 and <6)
23 | COc1ccc(-c2noc(N3CCC(C(=O)NCC4CCN(Cc5csc(C)n5)C4)CC3)n2)cc1 (centres unmarked) [Compound 383, 1-(3-(4-methoxyphenyl)-1,2,4-oxadiazol-5-yl)-N-((1-((2-methylthiazol-4-yl)methyl)pyrrolidin-3-yl)methyl)piperidine-4-carboxamide] | ++ (++ ≥5 and <6)
24 | COc1ccc(-c2noc(N3CCC(C(=O)NCC4CCN(Cc5nc(C)cs5)C4)CC3)n2)cc1 (centres unmarked) [Compound 384, 1-(3-(4-methoxyphenyl)-1,2,4-oxadiazol-5-yl)-N-((1-((4-methylthiazol-2-yl)methyl)pyrrolidin-3-yl)methyl)piperidine-4-carboxamide] | ++ (++ ≥5 and <6)
25 | COc1ccc(-c2noc(N3CCC(C(=O)NCC4CCN(Cc5ccc(C)s5)C4)CC3)n2)cc1 (centres unmarked) [Compound 385, 1-(3-(4-methoxyphenyl)-1,2,4-oxadiazol-5-yl)-N-((1-((5-methylthiophen-2-yl)methyl)pyrrolidin-3-yl)methyl)piperidine-4-carboxamide] | ++ (++ ≥5 and <6)
26 | CCCN1CCC(CNC(=O)C2CCN(c3nc(-c4ccc(OC)cc4)no3)CC2)C1 (centres unmarked) [Compound 386, 1-(3-(4-methoxyphenyl)-1,2,4-oxadiazol-5-yl)-N-((1-propylpyrrolidin-3-yl)methyl)piperidine-4-carboxamide] | + (+ >3 and <5)
27 | COc1ccc(-c2noc(N3CCC(C(=O)NCC4CCN(Cc5cccc(C)n5)C4)CC3)n2)cc1 (centres unmarked) [Compound 387, 1-(3-(4-methoxyphenyl)-1,2,4-oxadiazol-5-yl)-N-((1-((6-methylpyridin-2-yl)methyl)pyrrolidin-3-yl)methyl)piperidine-4-carboxamide] | ++ (++ ≥5 and <6)
28 | COc1ccc(-c2noc(N3CCC(C(=O)NCC4CCN(Cc5cnc(C)s5)C4)CC3)n2)cc1 (centres unmarked) [Compound 388, 1-(3-(4-methoxyphenyl)-1,2,4-oxadiazol-5-yl)-N-((1-((2-methylthiazol-5-yl)methyl)pyrrolidin-3-yl)methyl)piperidine-4-carboxamide] | ++ (++ ≥5 and <6)
29 | COc1ccc(-c2noc(N3CCC(C(=O)NCC4CCN(Cc5ccc[nH]5)C4)CC3)n2)cc1 (centres unmarked) [Compound 389, N-((1-((1H-pyrrol-2-yl)methyl)pyrrolidin-3-yl)methyl)-1-(3-(4-methoxyphenyl)-1,2,4-oxadiazol-5-yl)piperidine-4-carboxamide] | ++ (++ ≥5 and <6)
